These results are taken from US20080269114A1, “Y4 Selective Receptor Agonists For Thereapeutic Interventions” (priority 2004, published 2008).

Each structure is given as a SMILES string.

For one assay, the target named is T1, human Y1 receptor (Homo sapiens, UniProt P25929).
T1 construct: expressed in transfected cells; host or cells: COS-7
T1 sequence (P25929 1-384): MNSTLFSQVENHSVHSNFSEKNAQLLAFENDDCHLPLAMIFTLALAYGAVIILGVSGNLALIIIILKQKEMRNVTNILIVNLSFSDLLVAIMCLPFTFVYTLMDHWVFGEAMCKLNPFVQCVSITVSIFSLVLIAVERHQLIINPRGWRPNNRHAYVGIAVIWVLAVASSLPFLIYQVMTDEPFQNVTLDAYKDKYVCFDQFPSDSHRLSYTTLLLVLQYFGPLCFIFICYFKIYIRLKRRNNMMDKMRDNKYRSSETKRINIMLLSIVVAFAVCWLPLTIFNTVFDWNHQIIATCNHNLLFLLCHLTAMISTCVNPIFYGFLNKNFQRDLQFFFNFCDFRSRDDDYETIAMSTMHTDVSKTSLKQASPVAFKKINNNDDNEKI
Nature of the assay: Human Y1 receptor potency assay (inositol phosphate turnover, COS-7 cells). Format: cell-based. The conditions noted are these: relative to PP. The protocol:
Potency of the test compounds on the human Y2 receptor is determined by performing dose-response experiments in COS-7 cells transiently transfected with the human Y2 receptor as well as a promiscuous G protein, Gqi5 which ensures that the Y2 receptor couples through a Gq pathway leading to an increase in inositol phosphate turnover.
Cells are washed twice in buffer, 20 mM HEPES, pH 7.4, supplemented with 140 mM NaCl, 5 mM KCl, 1 mM MgSO4, 1 mM CaCl2, 10 mM glucose, 0.05% (w/v) bovine serum; and are incubated in 0.5 ml buffer supplemented with 10 mM LiCl at 37 C for 30 min. After stimulation with various concentrations of peptide for 45 min at 37 C, cells are extracted with 10% ice-cold perchloric acid followed by incubation on ice for 30 min. The resulting supernatants are neutralized with KOH in HEPES buffer, and the generated [3H]-inositol phosphate are purified on Bio-Rad AG 1-X8 anion-exchange resin and counted in a beta counter. Determinations are made in duplicates. EC50 values were calculated using a standard pharmacological data handling software, Prism 3.0 (graphPad Sofware, San Diego, USA).
Protocol as for the Y2 potency assay, except that human Y1-transformed COS-7 cells are used.

Another assay concerns food intake. Nature of the assay: Effect of Y4 selective agonists on acute food intake in mice. In kind it is in vivo, mice (ddy strain). The protocol: . In FIG. 2 is shown the accumulated food intake of the mice during 8 hours. […] The 50% suppressive effect on food intake was observed also when this was measured during the first full hour.
Effect of Y4 Selective Agonists on Acute Food Intake in Mice
The ddy strain of mice were used, 34-37 g and 8-9 weeks of age (Japan SLC, Shizuuoka, Japan). The mice were individually house in a regulated environment (22 C, 55% humidity) in a 12-hour light-dark cycle with light on at 7 AM. Food and water were available ad libitum except just before experiments (see below). The mice were acclimatized to subcutaneous injections during the week before experiments started. Mice were used once each in the experiments. Just before administration the peptides were diluted in physiological saline and administered in 100 μL volume for subcutaneous administration. Results are expressed as mean±SE. Analysis of variance followed by Bonferroni's test were used to assess differences among groups.
Mice were deprived of food but with free access to water for 16 hours prior to the actual test and experiments were started at 10 AM on the following day. A standard diet was used (CLEA Japan, Inc., Tokyo, Japan) and food intake was measured by subtracting uneaten food from the initially premeausured food after administration and checking for food spillage.

The target in a further assay is T2, human Y4 receptor (Homo sapiens, UniProt P50391).
T2 construct: expressed in transfected cells; host or cells: COS-7
T2 sequence (P50391 whole entry): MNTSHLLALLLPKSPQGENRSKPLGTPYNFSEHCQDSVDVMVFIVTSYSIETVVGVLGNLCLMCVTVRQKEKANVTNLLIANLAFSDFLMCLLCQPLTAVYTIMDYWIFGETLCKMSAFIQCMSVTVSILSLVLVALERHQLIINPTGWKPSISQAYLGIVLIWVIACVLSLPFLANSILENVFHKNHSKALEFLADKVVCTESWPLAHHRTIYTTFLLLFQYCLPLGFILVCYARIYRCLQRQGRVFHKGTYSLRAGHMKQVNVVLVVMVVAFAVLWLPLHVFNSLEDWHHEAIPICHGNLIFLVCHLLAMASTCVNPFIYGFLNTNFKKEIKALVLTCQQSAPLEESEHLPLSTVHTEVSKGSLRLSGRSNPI
The assay is described as follows: Human Y4 receptor potency assay (inositol phosphate turnover, COS-7 cells). Format: cell-based. As to conditions: relative to PP. The procedure: After stimulation with various concentrations of peptide for 45 min at 37 C, cells are extracted with 10% ice-cold perchloric acid followed by incubation on ice for 30 min. The resulting supernatants are neutralized with KOH in HEPES buffer, and the generated [3H]-inositol phosphate are purified on Bio-Rad AG 1-X8 anion-exchange resin and counted in a beta counter. Determinations are made in duplicates. EC50 values were calculated using a standard pharmacological data handling software, Prism 3.0 (graphPad Sofware, San Diego, USA).

Regarding `CC[C@H](C)[C@H](NC(=O)[C@H](Cc1ccc(O)cc1)NC(=O)[C@H](CCCNC(=N)N)NC(=O)[C@H](CCCNC(=N)N)NC(=O)[C@H](CC(C)C)NC(=O)[C@H](CC(=O)O)NC(=O)[C@H](C)NC(=O)[C@H](C)NC(=O)[C@H](Cc1ccc(O)cc1)NC(=O)[C@H](CCC(N)=O)NC(=O)[C@H](C)NC(=O)[C@H](CCSC)NC(=O)[C@H](CCC(N)=O)NC(=O)[C@H](CCC(=O)O)NC(=O)[C@@H]1CCCN1C(=O)[C@@H](NC(=O)[C@H](C)NC(=O)[C@H](CC(N)=O)NC(=O)[C@H](CC(=O)O)NC(=O)CNC(=O)[C@@H]1CCCN1C(=O)[C@H](Cc1ccc(O)cc1)NC(=O)[C@@H](NC(=O)[C@@H]1CCCN1C(=O)[C@H](CCC(=O)O)NC(=O)[C@H](CC(C)C)NC(=O)[C@@H]1CCCN1)C(C)C)[C@@H](C)O)C(=O)N[C@@H](CC(N)=O)C(=O)N[C@@H](CCSC)C(=O)N[C@@H](CC(C)C)C(=O)N[C@H](C(=O)N[C@@H](CCCNC(=N)N)C(=O)N1CCC[C@H]1C(=O)N[C@@H](CCCNC(=N)N)C(=O)N[C@@H](Cc1ccc(O)cc1)C(N)=O)[C@@H](C)O` [PP2-36], at human Y1 receptor, the “potency on the Y1 receptor lower than that of PP” value is given as 3-4 fold. Further, in the assay with food intake (after the single subcutaneous injection), the “period for which the suppressive effect on food intake was sustained” value was found to be 8 h. Moreover, the “suppressive effect on food intake” value in the assay on food intake (first full hour, single subcutaneous injection, 16 hours fasted mice) amounted to 50%.

As to `CC[C@H](C)[C@H](NC(=O)[C@H]1CSSC[C@H](NC(=O)[C@H](C)N)C(=O)N[C@@H](CC(C)C)C(=O)N[C@@H](CCC(=O)O)C(=O)N2CCC[C@H]2C(=O)N[C@@H](C(C)C)C(=O)N[C@@H](Cc2ccc(O)cc2)C(=O)N2CCC[C@H]2C(=O)NCC(=O)N[C@@H](CC(=O)O)C(=O)N[C@@H](CC(N)=O)C(=O)N[C@@H](C)C(=O)N[C@@H]([C@@H](C)O)C(=O)N2CCC[C@H]2C(=O)N[C@@H](CCC(=O)O)C(=O)N[C@@H](CCC(N)=O)C(=O)N[C@@H](CCSC)C(=O)N[C@@H](C)C(=O)N[C@@H](CCC(N)=O)C(=O)N[C@@H](Cc2ccc(O)cc2)C(=O)N[C@@H](C)C(=O)N[C@@H](C)C(=O)N[C@@H](CC(=O)O)C(=O)N[C@@H](CC(C)C)C(=O)N[C@@H](CCCNC(=N)N)C(=O)N[C@@H](CCCNC(=N)N)C(=O)N1)C(=O)N[C@@H](CC(N)=O)C(=O)N[C@@H](CCSC)C(=O)N[C@@H](CC(C)C)C(=O)N[C@H](C(=O)N[C@@H](CCCNC(=N)N)C(=O)N1CCC[C@H]1C(=O)N[C@@H](CCCNC(=N)N)C(=O)N[C@@H](Cc1ccc(O)cc1)C(N)=O)[C@@H](C)O` [[Cys2,D-Cys27]PP], the “potency on the Y4 receptor lower than that of PP” value at human Y4 receptor came out at 7 fold.
